Laboratory results from patent US4393225A, “AI-77 Compounds and pharmaceutically acceptable salts thereof” (Asahi Kasei Kogyo Kabushiki Kaisha, priority 1979, dated 1983).

Test system: ulcer
Test: Anti-ulcer test (restraint and water immersion ulcer in rats, i.p.)
Format: in vivo, Male Wistar rats
Conditions: Rattus norvegicus, ip, read-out: % Inhibition of Ulcer
Experimental: The anti-ulcer and anti-edema activity of the compounds was evaluated in efficacy tests described below.
Male Wistar rats weighing about 150 g on average were not fed for 24 hours before the test. Then a solution or suspension of a predetermined concentration of the test compound in physiological saline was administered to them intraperitoneally. One hour after the administration,each rat was restrained in a net cage and submerged in a water both (21° C.) from the tail to xiphistrenun for 6 hours. Test animals were then killed (by dislocation of the cervical vertebrae), the stomach was removed and incised along the curvatura ventriculi major, and the inside wall of the stomach was pathologically examined under microscopic observation. Rats in which the occurrence of an ulceration was substantially not observed were rated O, while others were rated 0.5, 1, 2 or 3, depending on the severity of the ulcer development. The percent inhibition of ulcer was calculated by the following formula: [formula]

`CCCCCNC(CC(N)=O)C(O)C(O)C(=O)NC(CC(C)C)C1Cc2cccc(O)c2C(=O)O1` (centres unmarked) [VII-10-2] gave an inhibition in vivo at 25 mg/kg of 94%.

Same assay, conditions: Rattus norvegicus, ip; 25 mg/kg i.p.; read-out: % Inhibition of Ulcer

Compared with `CNC(=O)CC(N)C(O)C(O)C(=O)NC(CC(C)C)C1Cc2cccc(O)c2C(=O)O1` (centres unmarked) [VII-1-2], `CCC(C)CCCCCNC(=O)CC(N)C(O)C(O)C(=O)NC(CC(C)C)C1Cc2cccc(O)c2C(=O)O1` (centres unmarked) [VII-1-31] is lower in inhibition in vivo at 25 mg/kg: 100% for the first, 83% for the second.

`CCCCCCCCCCCCCCCCCC(=O)NC(CC(=O)NCC)C(O)C(O)C(=O)NC(CC(C)C)C1Cc2cccc(O)c2C(=O)O1` (centres unmarked) [VII-28-4] and `CCCCOc1cccc2c1C(=O)OC(C(CC(C)C)NC(=O)C(O)C(O)C(CC(=O)NCC)NC(C)=O)C2` (centres unmarked) [VII-32-1] are the same in inhibition in vivo at 25 mg/kg: 66% for the first, 66% for the second.

First: CCCCOc1cccc2c1C(=O)OC(C(CC(C)C)NC(=O)C(OC)C(O)C(CC(N)=O)NC(C)=O)C2 (centres unmarked) [VII-34-1]
Second: CCCCOc1cccc2c1C(=O)OC(C(CC(C)C)NC(=O)C(OCCCC)C(O)C(CC(N)=O)NC)C2 (centres unmarked) [VII-25-3]
The inhibition in vivo at 25 mg/kg of the first is higher: 66% for the first, 56% for the second.

First: CNC(CC(N)=O)C(O)C(OC(C)=O)C(=O)NC(CC(C)C)C1Cc2cccc(O)c2C(=O)O1 (centres unmarked) [VII-20-1]
Second: CCNC(CC(N)=O)C(O)C(O)C(=O)NC(CC(C)C)C1Cc2cccc(OC(C)=O)c2C(=O)O1 (centres unmarked) [VII-13-1]
The inhibition in vivo at 25 mg/kg of the first is higher: 89% for the first, 83% for the second.

`CC(C)CC(NC(=O)C(O)C(O)C(N)CC(=O)NCc1ccc2ccccc2c1)C1Cc2cccc(O)c2C(=O)O1` (centres unmarked) [VII-1-18] and `CCOc1cccc2c1C(=O)OC(C(CC(C)C)NC(=O)C(O)C(O)C(N)CC(=O)Nc1ccc(C)cc1)C2` (centres unmarked) [VII-5-4] are the same in inhibition in vivo at 25 mg/kg: 78% for the first, 78% for the second.

`CCOc1cccc2c1C(=O)OC(C(CC(C)C)NC(=O)C(OC(=O)CC)C(O)C(N)CC(N)=O)C2` (centres unmarked) [VII-6-3] showed an inhibition in vivo at 25 mg/kg of 66%.

Same assay, conditions: Rattus norvegicus, ip; 50 mg/kg i.p.; read-out: % Inhibition of Ulcer

Going from `CC(=O)Oc1cccc2c1C(=O)OC(C(CC(C)C)NC(=O)C(OC(C)=O)C1OC(=O)CC1NCC(Cl)(Cl)Cl)C2` (centres unmarked) [IIIa-20-10] to `COC(C)CC(=O)NC1CC(=O)OC1C(OC(C)=O)C(=O)NC(CC(C)C)C1Cc2cccc(OC(C)=O)c2C(=O)O1` (centres unmarked) [IIIa-3-7], the inhibition in vivo at 50 mg/kg falls from 56% to 33%.

Going from `CCNC1CC(=O)OC1C(OC)C(=O)NC(CC(C)C)C1Cc2cccc(O)c2C(=O)O1` (centres unmarked) [IIIa-25-9] to `CCCCOc1cccc2c1C(=O)OC(C(CC(C)C)NC(=O)C(OC)C1OC(=O)CC1NCC)C2` (centres unmarked) [IIIa-24-16], the inhibition in vivo at 50 mg/kg falls from 66% to 56%.

`CCOc1cccc2c1C(=O)OC(C(CC(C)C)NC(=O)C(O)C1OC(=O)CC1NC(=O)C1CCCCC1=O)C2` (centres unmarked) [IIIa-5-33] and `CCOc1cccc2c1C(=O)OC(C(CC(C)C)NC(=O)C(O)C1OC(=O)CC1NC(=O)C1CC1)C2` (centres unmarked) [IIIa-5-18] are the same in inhibition in vivo at 50 mg/kg: 44% for the first, 44% for the second.

`CC(C)CC(NC(=O)C(O)C1C=CC(=O)O1)C1Cc2cccc(OCCCBr)c2C(=O)O1` (centres unmarked) [IVa-4-19] and `CCC(=O)COc1cccc2c1C(=O)OC(C(CC(C)C)NC(=O)C(O)C1C=CC(=O)O1)C2` (centres unmarked) [IVa-4-20] are the same in inhibition in vivo at 50 mg/kg: 44% for the first, 44% for the second.

First: CCCCNC1CC(=O)OC1C(O)C(=O)NC(CC(C)C)C1Cc2cccc(OCCCl)c2C(=O)O1 (centres unmarked) [IIIa-22-79]
Second: CCCCCCCCOc1cccc2c1C(=O)OC(C(CC(C)C)NC(=O)C(O)C1OC(=O)CC1NCC)C2 (centres unmarked) [IIIa-22-11]
The inhibition in vivo at 50 mg/kg of the first is higher: 94% for the first, 83% for the second.

`CCCCCCCCCCCCCCCCCC(=O)NC1CC(=O)OC1C(OCC)C(=O)NC(CC(C)C)C1Cc2cccc(OCCCCCCC)c2C(=O)O1` (centres unmarked) [IIIa-7-4] and `CCCCCCCCCCCCCCCCCC(=O)NC1CC(=O)OC1C(OC(C)=O)C(=O)NC(CC(C)C)C1Cc2cccc(OC(C)=O)c2C(=O)O1` (centres unmarked) [IIIa-3-4] are the same in inhibition in vivo at 50 mg/kg: 22% for the first, 22% for the second.

`CCOc1cccc2c1C(=O)OC(C(CC(C)C)NC(=O)C(OC(C)=O)C1OC(=O)CC1NC(=O)CC(C)OC)C2` (centres unmarked) [IIIa-6-7] and `CCC(=O)OC(C(=O)NC(CC(C)C)C1Cc2cccc(OC)c2C(=O)O1)C1OC(=O)CC1NC(C)=O` (centres unmarked) [IIIa-6-12] are the same in inhibition in vivo at 50 mg/kg: 33% for the first, 33% for the second.

Going from `CC(=O)NC1CC(=O)OC1C(O)C(=O)NC(CC(C)C)C1Cc2cccc(OCC(C)C)c2C(=O)O1` (centres unmarked) [IIIa-5-10] to `CC(C)COc1cccc2c1C(=O)OC(C(CC(C)C)NC(=O)C(O)C1OC(=O)CC1NC(=O)C(C)C)C2` (centres unmarked) [IIIa-5-4], the inhibition in vivo at 50 mg/kg falls from 44% to 33%.

Compared with `CCCCCCCCCCCCCCCCCCNC1CC(=O)OC1C(OCCCC)C(=O)NC(CC(C)C)C1Cc2cccc(O)c2C(=O)O1` (centres unmarked) [IIIa-25-3], `CCCCNC1CC(=O)OC1C(OC(=O)CCC)C(=O)NC(CC(C)C)C1Cc2cccc(O)c2C(=O)O1` (centres unmarked) [IIIa-19-10] is higher in inhibition in vivo at 50 mg/kg: 56% for the first, 66% for the second.

Compared with `CC(C)CC(NC(=N)C(OC(=O)CCC1CCCC1)C(O)C(N)CC(=O)O)C1Cc2cccc(O)c2C(=O)O1` (centres unmarked) [Vb-2-2], `COC(C(=N)NC(CC(C)C)C1Cc2cccc(O)c2C(=O)O1)C(O)C(N)CC(=O)O` (centres unmarked) [Vb-8-1] is higher in inhibition in vivo at 50 mg/kg: 56% for the first, 78% for the second.

`CC(C)CCc1ccc(COc2cccc3c2C(=O)OC(C(CC(C)C)NC(=O)C(O)C2C=CC(=O)O2)C3)cc1` (centres unmarked) [IVa-4-22] and `COC(C)CC(=O)Oc1cccc2c1C(=O)OC(C(CC(C)C)NC(=O)C(O)C1C=CC(=O)O1)C2` (centres unmarked) [IVa-3-17] are the same in inhibition in vivo at 50 mg/kg: 33% for the first, 33% for the second.

Compared with `CCCC(=O)NC1CC(=O)OC1C(OC(=O)CCC)C(=O)NC(CC(C)C)C1Cc2cccc(O)c2C(=O)O1` (centres unmarked) [IIIa-2-11], `CCCCOC(C(=O)NC(CC(C)C)C1Cc2cccc(O)c2C(=O)O1)C1OC(=O)CC1NC(C)=O` (centres unmarked) [IIIa-8-1] is higher in inhibition in vivo at 50 mg/kg: 33% for the first, 56% for the second.

Compared with `CCOc1cccc2c1C(=O)OC(C(CC(C)C)NC(=O)C(O)C1OC(=O)CC1NC(=O)C=Cc1ccoc1)C2` (centres unmarked) [IIIa-5-56], `CCOc1cccc2c1C(=O)OC(C(CC(C)C)NC(=O)C(O)C1OC(=O)CC1NC(=O)c1ccccc1)C2` (centres unmarked) [IIIa-5-16] is lower in inhibition in vivo at 50 mg/kg: 44% for the first, 33% for the second.

`CCCC(=O)NC1CC(=O)OC1C(OC)C(=O)NC(CC(C)C)C1Cc2cccc(OCc3ccc4ccccc4c3)c2C(=O)O1` (centres unmarked) [IIIa-7-13] and `CCCCOc1cccc2c1C(=O)OC(C(CC(C)C)NC(=O)C(OC)C1OC(=O)CC1NC(C)=O)C2` (centres unmarked) [IIIa-7-16] are the same in inhibition in vivo at 50 mg/kg: 33% for the first, 33% for the second.

Going from `CCOc1cccc2c1C(=O)OC(C(CC(C)C)NC(=O)C(O)C1OC(=O)CC1NC(=O)CC1CC1)C2` (centres unmarked) [IIIa-5-76] to `CCOc1cccc2c1C(=O)OC(C(CC(C)C)NC(=O)C(O)C1OC(=O)CC1NC(=O)CC1CCCCO1)C2` (centres unmarked) [IIIa-5-24], the inhibition in vivo at 50 mg/kg rises from 33% to 44%.

Compared with `COC(C)CC(=O)Oc1cccc2c1C(=O)OC(C(CC(C)C)NC(=N)C(O)C(O)C(N)CC(=O)O)C2` (centres unmarked) [Vb-4-3], `CCOc1cccc2c1C(=O)OC(C(CC(C)C)NC(=N)C(O)C(O)C(CC(=O)O)NC)C2` (centres unmarked) [Vb-23-1] is higher in inhibition in vivo at 50 mg/kg: 66% for the first, 89% for the second.

Going from `COc1ccc2ncc(C(=O)NC3CC(=O)OC3C(O)C(=O)NC(CC(C)C)C3Cc4cccc(O)c4C(=O)O3)cc2c1` (centres unmarked) [IIIa-1-30] to `CC(C)CC(NC(=O)C(O)C1OC(=O)CC1NC(=O)c1ccc(O)cc1)C1Cc2cccc(O)c2C(=O)O1` (centres unmarked) [IIIa-1-35], the inhibition in vivo at 50 mg/kg rises from 56% to 66%.

First: CC(C)CC(NC(=NCCN1CCCCC1)C(O)C(O)C(N)CC(=O)O)C1Cc2cccc(O)c2C(=O)O1 (centres unmarked) [Vb-1-45]
Second: CCCCCNC(=O)C=CC(O)C(O)C(=O)NC(CC(C)C)C1Cc2cccc(O)c2C(=O)O1 (centres unmarked) [VIII-1-2]
The inhibition in vivo at 50 mg/kg of the first is higher: 94% for the first, 56% for the second.

Going from `CCOc1cccc2c1C(=O)OC(C(CC(C)C)NC(=O)C(OC(=O)C(Cl)(Cl)Cl)C1OC(=O)CC1NC(=O)C(Cl)(Cl)Cl)C2` (centres unmarked) [IIIa-6-1] to `CC(C)CC(NC(=O)C(OC(=O)C(Cl)(Cl)Cl)C1OC(=O)CC1NC(=O)C(Cl)(Cl)Cl)C1Cc2cccc(O)c2C(=O)O1` (centres unmarked) [IIIa-2-1], the inhibition in vivo at 50 mg/kg rises from 33% to 44%.

Compared with `CCOc1cccc2c1C(=O)OC(C(CC(C)C)NC(=O)C(O)C1OC(=O)CC1NC(=O)c1ccc(OC)cc1)C2` (centres unmarked) [IIIa-5-39], `CCOc1cccc2c1C(=O)OC(C(CC(C)C)NC(=O)C(O)C1OC(=O)CC1NC(=O)Cc1cccnc1)C2` (centres unmarked) [IIIa-5-57] is lower in inhibition in vivo at 50 mg/kg: 44% for the first, 33% for the second.

Compared with `CSCCNC1CC(=O)OC1C(O)C(=O)NC(CC(C)C)C1Cc2cccc(O)c2C(=O)O1` (centres unmarked) [IIIa-18-38], `CC(=O)Oc1cccc2c1C(=O)OC(C(CC(C)C)NC(=O)C(O)C1OC(=O)CC1N)C2` (centres unmarked) [IIIa-12-1] is lower in inhibition in vivo at 50 mg/kg: 94% for the first, 78% for the second.

`CC(C)CC(NC(=O)C(O)C1C=CC(=O)O1)C1Cc2cccc(OC(=O)C(Cl)(Cl)Cl)c2C(=O)O1` (centres unmarked) [IVa-3-13] and `CC(C)CC(=O)OC(C(=O)NC(CC(C)C)C1Cc2cccc(O)c2C(=O)O1)C1C=CC(=O)O1` (centres unmarked) [IVa-1-5] are the same in inhibition in vivo at 50 mg/kg: 44% for the first, 44% for the second.

First: CCCCCSc1ccc(C(=O)NC2CC(=O)OC2C(O)C(=O)NC(CC(C)C)C2Cc3cccc(O)c3C(=O)O2)cc1 (centres unmarked) [IIIa-1-47]
Second: CCCCCC(=O)OC(C)CC(=O)NC1CC(=O)OC1C(O)C(=O)NC(CC(C)C)C1Cc2cccc(OCC)c2C(=O)O1 (centres unmarked) [IIIa-5-48]
The inhibition in vivo at 50 mg/kg of the first is higher: 56% for the first, 33% for the second.

First: CCCCCCCCC=CCCCCCCCCOc1cccc2c1C(=O)OC(C(CC(C)C)NC(=O)C(O)C1OC(=O)CC1N)C2 (centres unmarked) [IIIa-13-7]
Second: CCC(=O)OC(C(=O)NC(CC(C)C)C1Cc2cccc(OCC3CCCCC3)c2C(=O)O1)C1OC(=O)CC1NC(C)=O (centres unmarked) [IIIa-6-10]
The inhibition in vivo at 50 mg/kg of the first is higher: 72% for the first, 33% for the second.

Compared with `CCNC(CC(=O)O)C(O)C(OC(=O)CC)C(=N)NC(CC(C)C)C1Cc2cccc(OC(=O)C(C)C)c2C(=O)O1` (centres unmarked) [Vb-12-1], `CC(=O)Oc1cccc2c1C(=O)OC(C(CC(C)C)NC(=N)C(OC(C)=O)C(O)C(CC(=O)O)NCc1ccc(C)cc1)C2` (centres unmarked) [Vb-12-3] is lower in inhibition in vivo at 50 mg/kg: 56% for the first, 44% for the second.
